Where two headings read alike, the source gives them in different places. Blank lines part the entries; values can stand above or below the compound they belong to.
System: α7 integrin promoter
Assay: muscle cell-based assay: α7βgal+/− myoblasts/myotubes, LacZ reporter, β-galactosidase cleavage of FDG
Parameters: species or system mouse
Conditions: for Result in α7+/− β-galactosidase assay: Myoblasts; for Results in a α7+/− β-galactosidase assay, Myotubes, 0.5 uM: compound at 0.5 uM; for Results in a α7+/− β-galactosidase assay, Myotubes, 1 uM: compound at 1 uM; for Results in a α7+/− β-galactosidase assay, Myotubes, 5 uM: compound at 5 uM; for Results in a α7+/− β-galactosidase assay, Myotubes, 10 uM: compound at 10 uM; for Results in a α7+/− β-galactosidase assay, Myotubes, 20 uM: compound at 20 uM; for Results in a α7+/− β-galactosidase assay, Myotubes, 40 uM: compound at 40 uM; for EC50: given as log AC50 (negative values), read-out: Fit LogAC50 (converted); for AC50: log of AC50, given with negative sign, unit of AC50 not given, read-out: Fit Log AC50 (converted)
In short: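 Primary α7βgal+/− mouse myoblasts (LacZ knocked into α7 integrin exon 1, promoter retained), differentiated; promoter activity read as β-galactosidase conversion of non-fluorescent FDG to fluorescein. Hits followed by dose-response, western analysis and myostatin counterscreen.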

[1] = curve class number, key not given
[2] = curve fit, activity at zero concentration
[3] = Table 12, fitted activity at zero concentration
[4] = Table 12 Compound data, concentration-response curve fit

SMILES: NS(=O)(=O)c1ccc(NC(=O)Nc2ccc(Cl)cc2)cc1 [Compound 202]
Fit Curve Class: 2.2
Fit HillSlope: 1.8617

SMILES: COc1ccc(C(=O)Nc2ccc(Cl)cn2)cc1Cl [drawing 706]
Result in α7+/− β-galactosidase assay (0.5 uM): 0.1451
Result in α7+/− β-galactosidase assay (1 uM): 0.1676
Result in α7+/− β-galactosidase assay (5 uM): −0.1344
Result in α7+/− β-galactosidase assay (10 uM): −0.2645
Result in α7+/− β-galactosidase assay (20 uM): −0.7598
Result in α7+/− β-galactosidase assay (40 uM): −0.8234

SMILES: COc1cc(NC(=O)OCc2ccccc2)c2ncccc2c1 [drawing 349]
Results in a α7+/− β-galactosidase assay, Myotubes, 0.5 uM: 0.01764
Results in a α7+/− β-galactosidase assay, Myotubes, 1 uM: 0.03267
Results in a α7+/− β-galactosidase assay, Myotubes, 5 uM: −0.1098
Results in a α7+/− β-galactosidase assay, Myotubes, 10 uM: −0.05054
Results in a α7+/− β-galactosidase assay, Myotubes, 20 uM: −0.1951
Results in a α7+/− β-galactosidase assay, Myotubes, 40 uM: −0.2383

EC50 (Mus musculus): 12.6 µM
SMILES: CCOC(=O)/C(C(=O)c1ccccc1)=C(\N)NCCO [Compound 222]
Score (Table 12 compound data): 41
Fit Curve Class [1]: 2.2
Fit HillSlope (curve fit): 4.095
Fit Zero Activity [%] [2]: 9.8519%

EC50 (Mus musculus): 11.2 µM
SMILES: COc1cc2c(cc1OC)C(NC(=O)C(F)(F)F)C/C2=N\O (stereo not shown) [Compound 193]
Score (Table 12 compound data): 42
Fit Curve Class [1]: 2.1
Fit HillSlope (curve fit): 4.095
Fit Zero Activity [%] [2]: 2.547%

SMILES: COc1cccc(C(=O)NCC(=O)N2CCC3(CC2)NCCc2[nH]cnc23)c1 [Compound 93]
AC50 (Mus musculus, Table 12): 11.2 µM
Fit HillSlope (Table 12, curve fit): 1.7529
Fit Zero Activity [%] [3]: −3.6365%
Fit Curve Class (Table 12, key not given): 2.1
Score [4]: 43

EC50 (Mus musculus): 14.1 µM
SMILES: O=S(=O)(NCC(c1ccco1)N1CCOCC1)c1ccc(Cl)cc1 (stereo not shown) [Compound 212]
Score (Table 12 compound data): 42
Fit Curve Class [1]: 2.1
Fit HillSlope (curve fit): 4.5045
Fit Zero Activity [%] [2]: 9.0119%

SMILES: O=C(CCc1ccccc1)c1nnc(-c2ccccc2)o1 [drawing 367]
Results in a α7+/− β-galactosidase assay, Myotubes, 0.5 uM: 0.117
Results in a α7+/− β-galactosidase assay, Myotubes, 1 uM: 0.1296
Results in a α7+/− β-galactosidase assay, Myotubes, 5 uM: −0.09921
Results in a α7+/− β-galactosidase assay, Myotubes, 10 uM: −0.1418
Results in a α7+/− β-galactosidase assay, Myotubes, 20 uM: −0.1125
Results in a α7+/− β-galactosidase assay, Myotubes, 40 uM: 0.05525

SMILES: Cc1cc(OCC(=O)NC(C)C)ccc1Cl [drawing 472]
Results in a α7+/− β-galactosidase assay, Myotubes, 0.5 uM: −0.02692
Results in a α7+/− β-galactosidase assay, Myotubes, 1 uM: −0.04637
Results in a α7+/− β-galactosidase assay, Myotubes, 5 uM: −0.3868
Results in a α7+/− β-galactosidase assay, Myotubes, 10 uM: −0.4196
Results in a α7+/− β-galactosidase assay, Myotubes, 20 uM: −0.2513
Results in a α7+/− β-galactosidase assay, Myotubes, 40 uM: −0.2531

SMILES: Cc1cc(C)cc(OCC(=O)N/N=C/c2ccccn2)c1 [drawing 339]
Results in a α7+/− β-galactosidase assay, Myotubes, 0.5 uM: 0.02382
Results in a α7+/− β-galactosidase assay, Myotubes, 1 uM: 0.1393
Results in a α7+/− β-galactosidase assay, Myotubes, 5 uM: 0.05474
Results in a α7+/− β-galactosidase assay, Myotubes, 10 uM: −0.09985
Results in a α7+/− β-galactosidase assay, Myotubes, 20 uM: 0.0109
Results in a α7+/− β-galactosidase assay, Myotubes, 40 uM: 0.02169

SMILES: Cc1cc([N+](=O)[O-])ccc1NC(=O)C(C)N1CCN(c2ccccn2)CC1 (stereo not shown) [drawing 393]
Results in a α7+/− β-galactosidase assay, Myotubes, 0.5 uM: 0.0774
Results in a α7+/− β-galactosidase assay, Myotubes, 1 uM: 0.107
Results in a α7+/− β-galactosidase assay, Myotubes, 5 uM: −0.1042
Results in a α7+/− β-galactosidase assay, Myotubes, 10 uM: −0.1154
Results in a α7+/− β-galactosidase assay, Myotubes, 20 uM: −0.297
Results in a α7+/− β-galactosidase assay, Myotubes, 40 uM: −0.3729

SMILES: CC(NC(=O)c1cn(C)c2ccc(S(=O)(=O)N3CCCC3)cc2c1=O)c1ccccc1 (stereo not shown) [Compound 28]
AC50 (Mus musculus, Table 12): 2.82 µM
Emax (Mus musculus, read-out: Max Response [%]): 54.7%
Fit HillSlope (Table 12, curve fit): 2.5334
Fit Zero Activity [%] [3]: −36.6914%
Fit Curve Class (Table 12, key not given): 1.1
Score [4]: 83

SMILES: CCOC(=O)C1CCCN(C(=O)CNS(=O)(=O)c2ccc(Br)s2)C1 (stereo not shown) [drawing 500]
Results in a α7+/− β-galactosidase assay, Myotubes, 0.5 uM: −0.02306
Results in a α7+/− β-galactosidase assay, Myotubes, 1 uM: 0.05901
Results in a α7+/− β-galactosidase assay, Myotubes, 5 uM: −0.3059
Results in a α7+/− β-galactosidase assay, Myotubes, 10 uM: −0.1617
Results in a α7+/− β-galactosidase assay, Myotubes, 20 uM: −0.03881
Results in a α7+/− β-galactosidase assay, Myotubes, 40 uM: −0.02855

SMILES: CC1(C)Cc2c(cnn2-c2cccc(F)c2)C(NC(=O)CCc2cnccn2)C1 (stereo not shown) [drawing 326]
Results in a α7+/− β-galactosidase assay, Myotubes, 0.5 uM: 0.2586
Results in a α7+/− β-galactosidase assay, Myotubes, 1 uM: 0.1834
Results in a α7+/− β-galactosidase assay, Myotubes, 5 uM: −0.03061
Results in a α7+/− β-galactosidase assay, Myotubes, 10 uM: 0.09511
Results in a α7+/− β-galactosidase assay, Myotubes, 20 uM: −0.2257
Results in a α7+/− β-galactosidase assay, Myotubes, 40 uM: −0.2443

From US10028992B2, “Methods of treating muscular dystrophy” (BOARD OF REGENTS OF THE NEVADA SYSTEM OF HIGHER EDUCATION …, priority 2012, dated 2018)
